Results taken from patent US10370404B2, “Protoescigenin derivative, process of its preparation, use of said compound and pharmaceutical composition comprising that compound” (Warszawski Uniwersytet Medyczny, priority 2015, dated 2019).

Legend:
[1] = system: male Wistar rats with surgically created side-to-side arterio-venous fistula between common femoral vessels; assay: Rat arteriovenous fistula model of Parkes Weber syndrome: thigh circumference, muscle weight, femoral bone length; assay type: in vivo; settings: sodium salt 10 mg/ml oral gavage, 4 weeks
Protocol: (§1) The below experiments were performed on male Wistar rats, at the age of 8-10 weeks, divided into two groups: the experimental group with surgically created side-to-side arterio-venous fistula between common femoral vessels (n=23) and a control group of un-operated animals (n=10). The experiment was approved by the local Bioethics Commission for experiments on animals, Warsaw 02-091, Żwirki i Wigury 61 (resolutions nr 11/2009 dated Jun. 23, 2009 and 46/12 dated Sep. 25, 2012).
Rats in experimental group were divided into two sub-groups, receiving no treatment (n=14) and receiving compound of the invention (n=9). Each animal was subjected to following surgical operations.
After induction of general anesthesia longitudinal skin incision just below inguinal ligament was performed. […] After application of micro-vascular clamps on common femoral vessels longitudinal 2 mm±0.1 mm long incision on antero-lateral side of the vein and antero-medial side of the artery were performed. Afterwards side-to-side anastomosis between common femoral vessels was performed to create arteriovenous fistula (non-absorbable monofilament suture 10/0). Subsequently micro-vascular clamps were removed and arteriovenous fistula patency was checked and haemostasis was achieved. […] The resultant vein lumen corresponded to approximately 80-90% of the initial vein lumen. Next, subcutaneous tissue and skin were sutured with absorbable suture.
The above procedure results in obtaining an animal model of Parkes Weber syndrome, described in the European patent application EP14001527. Hereinafter, these limbs are referred to as AVF limbs.
The operation of the right hind limb (control limb) included skin incision, common femoral vessels dissection, and subcutaneous and skin suture (absorbable suture). Hereinafter, these limbs are referred to as sham-operated limbs.
Animals were fed for 1 week, than surgical procedures were conducted. After the operation, animals were fed and treated with the compound of the invention.
(§2) The rats in sub-groups receiving compound of the invention were treated for 4 weeks with the compound of the invention (E-38) in form of sodium salt (10 mg/ml, 13.7 mM) administered by oral gavage.
(§3) After 4 weeks, rats were sacrificed and measurements were conducted. Non-operated rats were fed during the whole experiment. Blood samples for serum analysis were collected before the animals were sacrificed. […]
(§4) After euthanasia, measurements of thigh circumference limbs of animals of the experimental and control groups were performed. […] Femoral bones were excised and their length was measured with an electronic slide clipper.
(§5) The results were expressed as arithmetic means and standard errors of the mean (SEM). […]

[2] = system: Human Umbilical Vein Endothelial Cells (HUVEC); assay: HUVEC cell migration assay; assay type: cell-based; settings: 2 μM; rhTNF-α 10 ng/ml
Protocol: (§6) Human Umbilical Vein Endothelial Cells (HUVEC) were cultured in the EBM-2 (Lonza) supplemented with endothelial growth supplement mix (EGM-2 SingleQuot Kit Supplements and Growth Factors, Lonza) and 2% foetal bovine serum under standard cell culture condition (37° C., 5% CO2). Cells were harvested using Accutase (PAA Laboratories). All described experiments were performed with cells of passage four from at least three donors. The cells were treated with the compound of the invention at 2 μM for 24 h with or without an additional of 6 h stimulation of recombinant human TNF-α (rhTNF-α, 10 ng/ml, R&D Systems).
The rate of cell migration was measured with the Angiogenesis System: Endothelial Cell Migration (BD Biosciences) strictly according to the manufacturer's instructions.
The rate of cell migration was measured with Angiogenesis System: Endothelial Cell Migration (BD Biosciences). Briefly, 90% confluent HUVEC were incubated with the compound of the invention at 2 μM concentration in a complete culture medium for 24 h, then starved for 4 h in a medium containing 0.1% serum. Following seeing on migration inserts ([…] in 250 μl of media containing the compound of the invention) HUVEC were stimulated with rhTNF-α (10 ng/ml, R&D Systems). […]

[3] = Biochemical analysis of the serum samples; assay type: in vivo, rat; settings: control and experimental rats; sodium salt 10 mg/ml oral gavage, 4 weeks
Protocol: as §2
After 4 weeks, rats were sacrificed and measurements were conducted. Non-operated rats were fed during the whole experiment. Blood samples for serum analysis were collected before the animals were sacrificed. Biochemical analysis of the blood samples was conducted using biochemical analyzer Cobas 6000 (Roche, Hitachi).
In order to verify whether the administration of the compound of the invention results in any toxic effects influence in tested rats, the inventors conducted a set of basic biochemical tests of the serum isolated from the blood samples obtained from the control and experimental rats.
The conducted blood serum test included following parameters: glucose (GLUC), creatinin (CREA), urea (UREA), total protein (TP), uric acid (UA), amylase (AMYL), albumin (ALB), cholesterol (CHOL), triglicerides (TRIG), lipase (LIP), aspartate aminotransferase (AST), alanine aminotransferase (ALT), creatine kinase (CK).

[4] = system: Human Umbilical Vein Endothelial Cells (HUVEC); assay: HUVEC in vitro vascular permeability assay; assay type: cell-based; settings: 2 μM for 24 h; rhTNF-α for the last 6 h
Protocol: as §6
The In Vitro Vascular Permeability Assay Kit (Chemicon) was used to determine HUVEC monolayer permeability. All the steps of the procedure were performed according to the manufacturer's instructions.
The In Vitro Vascular Permeability Assay Kit (Chemicon) was used to determine HUVEC monolayer permeability following 24 h treatment of the compound of the invention at 2 μM concentrations. The effect of rhTNF-α (R&D Systems), which was added to cell culture for the last 6 h of the incubation period, was also determined. The subsequent steps of the procedure were performed according to the manufacturer's instructions.

[5] = system: male Wistar rats (un-operated control group); assay: Un-operated control rats: thigh circumference, muscle weight, femoral bone length; assay type: in vivo, rat; settings: sodium salt 10 mg/ml oral gavage, 4 weeks
Protocol: as §1
Rats in the control group were also divided into two sub-groups, receiving no treatment (n=6) and receiving the compound of the invention (n=4). These animals were not subjected to any surgical procedure.
as §2, §3, §4, §5

[6] = left hind (AVF) limbs vs experimental group with no treatment

For CC1(C)C[C@H]2C3=CCC4[C@@]5(C)CC[C@H](O)[C@](C)(CO)C5CC[C@@]4(C)[C@]3(C)C[C@@H](O)[C@@]2(COCc2cn(-c3ccc(C(=O)O)cc3)nn2)[C@@H](O)[C@@H]1O (some centres unmarked) [compound of the invention], the “effect on measured parameters (thigh circumference, EDL and SOL muscle weight, femoral bone length)” value ([1]; AVF rats) was “reduction of the measured parameters to a very significant extent”, the “reduction of EDL muscle weight” value [1, 6] was “approx. 59.2%” and the “reduction of SOL muscle weight” value [1, 6] was “approx. 63.6%”. The “reduction of thigh circumference” value [1, 6] was “approx. 12.5%”, the TNF-α-induced cell migration [2] was “reduced” and the “influence on blood serum parameters (GLUC, CREA, UREA, TP, UA, AMYL, ALB, CHOL, TRIG, LIP, AST, ALT, CK)” value [3] was “no significant influence”. For the same compound, the “TNF-α-induced endothelial cells permeability” value [4] was “significantly decreased” and the “influence on measured parameters (thigh circumference, EDL and SOL muscle weight, femoral bone length)” value [5] was “insignificant influence”.
